Experimental data reported in US20250134877A1, “METHODS OF TREATING CANCER DEPENDENT ON MYC GENE EXPRESSSION” (KARTOS THERAPEUTICS, priority 2021, published 2025).

Columns and labels:
[1] = system: other members of the CD28 family; details: selectivity; cited from earlier work
p21 gene expression [2] = test: Gene expression analysis of PBMC samples from relapsed/refractory AML patients: p21; format: in vivo, human; details: R/R AML patients, 120, 180, 240 or 360 mg daily for seven days, C1D1 pre-dose vs C1D5, FIG. 2
Description: (§1) FIG. 2 illustrates that the compound of Formula (I) induces p21 and represses Myc in relapsed/refractory acute myeloid leukemia (AML) patients. PBMC samples from the patients were used for the gene expression analyses. C1D1 refers to Cycle 1 Day 1. C1D5 refers to Cycle 1 Day 5.
(§2) Effects of the compound of Formula (I) were investigated on the gene expression of p21 and Myc in the AML patients.
(§3) In dose-escalation phase study, the dosing of the compound of Formula (I) is 120 mg (three patients); 180 mg (2 patients), 240 mg (8 patients), and 360 mg (4 patients) daily for seven days, with different ‘off-treatment’ duration depending on cohort assignments. The peripheral blood mononuclear cell (PBMC) samples were taken from patients pre-dosing on day 1 of cycle 1, and day 5 of cycle 1.

Myc gene expression [3] = test: Gene expression analysis of PBMC samples from relapsed/refractory myelofibrosis patients: Myc; format: in vivo, human; details: R/R myelofibrosis patients, 120 mg or 240 mg for 7 days or 240 mg for 5 days, C1D1 pre-dose vs C1D5, C1D6/8, FIG. 1
Text: (§4) FIG. 1 illustrates that the compound of Formula (I) induces p21 and represses Myc in relapsed/refractory myelofibrosis (R/R MF) patients. PBMC samples from the patients were used for the gene expression analyses. fdr.q refers to false discovery rate adjusted significance value for change in normalized gene expression. C1D1 refers to Cycle 1, Day 1. C1D5 refers to Cycle 1, Day 5. C1D6/8 refers to Cycle 1, Day 6 or 8.
(§5) Effects of the compound of Formula (I) were investigated on the gene expression of p21 and Myc in the patients of relapsed/refractory myelofibrosis. In the study, The compound of Formula (I) is administered at 120 mg for 7 days for Cohort 1, 240 mg for 7 days for Cohort 2, 240 mg for 7 days for Cohort 3, and 240 mg for 5 days for Cohort 4.
(§6) The peripheral blood mononuclear cell (PBMC) samples were taken from the patients pre-dosing on day 1 of cycle 1, day 5 of cycle 1, day 6 of cycle 1, and day 8 of cycle 1.

p21 gene expression [4] = test: Gene expression analysis of PBMC samples from relapsed/refractory myelofibrosis patients: p21; format: in vivo, human; details: R/R myelofibrosis patients, 120 mg or 240 mg for 7 days or 240 mg for 5 days, C1D1 pre-dose vs C1D5, C1D6/8, FIG. 1
Text: as §4, §5, §6

Myc gene expression [5] = test: Gene expression analysis of PBMC samples from relapsed/refractory AML patients: Myc; format: in vivo, human; details: R/R AML patients, 120, 180, 240 or 360 mg daily for seven days, C1D1 pre-dose vs C1D5, FIG. 2
Description: as §1, §2, §3

Molecule | binding to other members of the CD28 family [1] | effect on p21 gene expression (p21 gene expression [2]) | effect on Myc gene expression (Myc gene expression [3]) | effect on p21 gene expression (p21 gene expression [4]) | effect on Myc gene expression (Myc gene expression [5])
5C4: fully human IgG4 antibody blocking the PD-1 receptor; 5C4 in WO 2006/121168 and U.S. Pat. No. 8,008,449 [Formula 5C4] | do not bind |  |  |  | 
CC(C)[C@@H](CS(=O)(=O)C(C)C)N1C(=O)[C@@](C)(CC(=O)O)CC(c2cccc(Cl)c2)[C@H]1c1ccc(Cl)cc1 (stereo partly drawn) [Formula (I), 2-((3R,5R,6S)-5-(3-chlorophenyl)-6-(4-chlorophenyl)-1-((S)-1-(isopropylsulfony1)-3-methylbutan-2-y1)-3-methyl-2-oxopiperidin-3-yl) acetic acid] |  | induces | represses | induces | represses
